Data reported in patent US9451775B2, “Heterocyclic compounds as pesticides” (Bayer Intellectual Property GmbH, priority 2008, dated 2016).

What was measured:
[1] = logP determination by HPLC (formic acid method); assay type: physicochemical; conditions: reversed-phase HPLC column (C18), pH 3.4, HPLC on reversed-phase column (C18), acidic range (pH 3.4), 55° C.; read-out: logP (HCOOH)
In short: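 Reversed-phase C18 HPLC at 55 °C, pH 3.4, with a 4.25 min gradient from 10% to 95% acetonitrile (formic acid-modified water/acetonitrile phases). logP was derived from retention time by linear interpolation between unbranched alkan-2-ones (C3-C16) of known logP.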

[2] = tested on: green peach aphid (Myzus persicae); test: Myzus test (spray treatment); assay type: in vivo; conditions: foliar, application rate of 500 g/ha, sprayed Chinese cabbage leaf discs, read-out: activity (effect in %, aphids killed)
In short: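 Chinese cabbage leaf discs heavily infested with all stages of the aphid are sprayed with compound formulated in acetone/dimethylformamide with alkylaryl polyglycol ether emulsifier, diluted in emulsifier-containing water. After a set period, kill is scored in %: 100% all aphids dead, 0% none.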

| chromatographic logP [1] | SMILES | pest or weed control at 500 g/ha [2] [%] |
| --- | --- | --- |
| 2.61 | Cc1cccc(-c2noc(-c3sc(-c4cccnc4)nc3C)n2)n1 [compound 139] | ≥ 80 |
| 3.42 | Cc1nc(-c2cccnc2)sc1-c1ccn(C(=S)NCC(F)(F)F)n1 [compound 141] | ≥ 80 |
| 3.35 | Cc1nc(-c2cccnc2)sc1-c1ccnc(C(F)(F)C(F)(F)F)n1 [compound 142] | ≥ 80 |
| 4.28 | Cc1nc(-c2cccnc2)sc1-c1ccn(C(=S)NCC(C)C)n1 [compound 143] | ≥ 80 |
| 2.72 | Cc1nc(-c2cccnc2)sc1-c1ccc(C(F)(F)F)nc1 [compound 144] | ≥ 80 |
| 1.71 | Cc1noc(Cn2ccc(-c3sc(-c4cccnc4)nc3C)n2)n1 [compound 145] | ≥ 80 |
| 1.43 | Cc1nc(-c2cccnc2)sc1-c1ccn(Cc2ncccn2)n1 [compound 146] | ≥ 80 |
| 1.24 | c1cnc(Cn2ccc(-c3cnc(-c4cccnc4)s3)n2)nc1 [compound 147] | ≥ 80 |
| 1.59 | c1cncc(-c2ncc(-c3cccc(C4=NOCCO4)n3)s2)c1 [compound 148] | ≥ 80 |
| 1.85 | c1cncc(-c2ncc(-c3cccc(-n4ccnn4)n3)s2)c1 [compound 149] | ≥ 80 |
| 1.76 | Cc1nc(-c2cncnc2)sc1-c1cccc(-c2ncccn2)n1 [compound 150] | ≥ 80 |
| 1.54 | c1cnc(-c2cccc(-c3cnc(-c4cncnc4)s3)n2)nc1 [compound 151] | ≥ 80 |
| 2.43 | Cc1nc(-c2cncc(F)c2)sc1-c1cccc(-c2ncccn2)n1 [compound 152] | ≥ 80 |
| 2.11 | Fc1cncc(-c2ncc(-c3cccc(-c4ncccn4)n3)s2)c1 [compound 153] | ≥ 80 |
| 2.13 | Cc1nc(-c2cccnc2)sc1-c1cccc(-n2ccnn2)n1 [compound 154] | ≥ 80 |
| 1.89 | c1cncc(-c2ncc(-c3cccc(-n4nccn4)n3)s2)c1 [compound 155] | ≥ 80 |
| 2.65 | Cc1nc(-c2cccnc2)sc1-c1cccc(-n2nc(C(F)(F)F)n(C)c2=O)n1 [compound 156] | ≥ 80 |
| 2.35 | Cn1c(C(F)(F)F)nn(-c2cccc(-c3cnc(-c4cccnc4)s3)n2)c1=O [compound 157] | ≥ 80 |
| 1.41 | c1cncc(-c2nnc(-c3ccncc3)s2)c1 [compound 158] | ≥ 80 |
| 3.16 | FC(F)(F)Oc1cccc(-c2nnc(-c3cccnc3)s2)c1 [compound 159] | ≥ 80 |
| 1.44 | c1cnc(-n2ccc(-c3nnc(-c4cccnc4)s3)n2)nc1 [compound 160] | ≥ 80 |
| 1.13 | c1cnc(-n2nccc2-c2nnc(-c3cccnc3)s2)nc1 [compound 161] | ≥ 80 |
| 0.84 | c1cncc(-c2nnc(-c3cc[nH]n3)s2)c1 [compound 162] | ≥ 80 |
| 1.07 | c1cncc(-c2nnc(-c3cccnc3)s2)c1 [compound 163] | ≥ 80 |
| 1.39 | c1cnc(-c2cccc(-c3nnc(-c4cncnc4)s3)n2)nc1 [compound 164] | ≥ 80 |
| 1.91 | Fc1cncc(-c2nnc(-c3cccc(-c4ncccn4)n3)s2)c1 [compound 165] | ≥ 80 |
| 0.91 | Cn1nc(-c2cccnc2)cc1-c1ccn(Cc2ccccn2)n1 [compound 166] | ≥ 80 |
